Experimental data from patent US20250179061A1 (SIRONAX LTD., priority 2022, published 2025).

Each compound was assayed on HT-29 cells (assay: HT-29 necroptosis cell viability assay (TNF-α/SMAC mimetic/zVAD-FMK, CellTiter-Glo)). Conditions: Homo sapiens, HT-29, HT-29 necroptosis cell viability, IC50 class symbols; read-out: Activity.
Type: cell-based
Procedure, shortened: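 HT-29 cells (~5,000/well, overnight) in FBS-free McCoy's 5A with TNF-α 10 ng/ml, SMAC mimetic 6 μM and zVAD-FMK 10 μM plus 10-point 1:3 compound titration, 20 h at 37°C. ATP measured by CellTiter-Glo luminescence; IC50 as geometric mean of duplicates.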
For `Cc1c(Oc2ccc(-n3ncn(Cc4c(F)cccc4F)c3=O)cc2)ccnc1N1CC2(CCOCC2)C1` [Example 273, 4-(2,6-difluorobenzyl)-2-(4-((3-methyl-2-(7-oxa-2-azaspiro[3.5]nonan-2-yl)pyridin-4-yl)oxy)phenyl)-2,4-dihydro-3H-1,2,4-triazol-3-one], the IC50 was 100 to 1000 nM.
`Cc1cc(-n2ncn(Cc3c(F)cccc3F)c2=O)ccc1Oc1ccnc(N2CC3(CCOCC3)C2)c1` [Example 274, 2-(4-((2-(7-oxa-2-azaspiro[3.5]nonan-2-yl)pyridin-4-yl)oxy)-3-methylphenyl)-4-(2,6-difluorobenzyl)-2,4-dihydro-3H-1,2,4-triazol-3-one] gave an IC50 of 1000 to 10000 nM.
In the case of `O=c1n(Cc2c(F)cccc2F)cnn1-c1ccc(Oc2ccnc(N3CC(OC(F)(F)F)C3)c2)cc1` [Example 275, 4-(2,6-difluorobenzyl)-2-(4-((2-(3-(trifluoromethoxy)azetidin-1-yl)pyridin-4-yl)oxy)phenyl)-2,4-dihydro-3H-1,2,4-triazol-3-one], the IC50 is reported as 100 to 1000 nM.
With `N#CC1CCCN(c2cc(Oc3ccc(-n4ncn(Cc5c(F)cccc5F)c4=O)cc3)ccn2)C1` (centres unmarked) [Example 277, 1-(4-(4-(4-(2,6-difluorobenzyl)-5-oxo-4,5-dihydro-1H-1,2,4-triazol-1-yl)phenoxy)pyridin-2-yl)piperidine-3-carbonitrile] the IC50 was 100 to 1000 nM.
`N#CC1(CO)CN(c2cc(Oc3ccc(-n4ncn(Cc5c(F)cccc5F)c4=O)cc3)ccn2)C1` [Example 278, 1-(4-(4-(4-(2,6-difluorobenzyl)-5-oxo-4,5-dihydro-1H-1,2,4-triazol-1-yl)phenoxy)pyridin-2-yl)-3-(hydroxymethyl)azetidine-3-carbonitrile] was tested, and the IC50 was 100 to 1000 nM.
With `O=c1n(Cc2c(F)cccc2F)cnn1-c1ccc(Oc2ccnc(NCC3CCO3)c2)cc1` (centres unmarked) [Example 279, 4-(2,6-difluorobenzyl)-2-(4-((2-((oxetan-2-ylmethyl)amino)pyridin-4-yl)oxy)phenyl)-2,4-dihydro-3H-1,2,4-triazol-3-one] the IC50 was 100 to 1000 nM.
For `O=c1n(Cc2c(F)cccc2F)cnn1-c1ccc(Oc2ccnc(N3CC(F)(C4CC4)C3)c2)cc1` [Example 280, 2-(4-((2-(3-cyclopropyl-3-fluoroazetidin-1-yl)pyridin-4-yl)oxy)phenyl)-4-(2,6-difluorobenzyl)-2,4-dihydro-3H-1,2,4-triazol-3-one], the IC50 was 100 to 1000 nM.
In the case of `CC1CN(c2cc(Oc3ccc(-n4ncn(Cc5c(F)cccc5F)c4=O)cc3)ccn2)CC1C#N` (centres unmarked) [Example 281, 1-(4-(4-(4-(2,6-difluorobenzyl)-5-oxo-4,5-dihydro-1H-1,2,4-triazol-1-yl)phenoxy)pyridin-2-yl)-4-methylpyrrolidine-3-carbonitrile], the IC50 is reported as < 100 nM.
`C[C@H]1C[C@@H](C#N)CN1c1cc(Oc2ccc(-n3ncn(Cc4c(F)cccc4F)c3=O)cc2)ccn1` [Example 282, (3R,5S)-1-(4-(4-(4-(2,6-difluorobenzyl)-5-oxo-4,5-dihydro-1H-1,2,4-triazol-1-yl)phenoxy)pyridin-2-yl)-5-methylpyrrolidine-3-carbonitrile] was tested, and the IC50 was < 100 nM.
With `O=c1n(Cc2c(F)cccc2F)cnn1-c1ccc(Oc2cc(N3CCOCC3)ncc2F)c(F)c1` [Example 283, 4-(2,6-difluorobenzyl)-2-(3-fluoro-4-((5-fluoro-2-morpholinopyridin-4-yl)oxy)phenyl)-2,4-dihydro-3H-1,2,4-triazol-3-one] the IC50 was < 100 nM.
With `C[C@H]1C[C@@H](C#N)CN1c1cc(Oc2ccc(-n3ncn(Cc4c(F)cccc4F)c3=O)cc2F)c(F)cn1` [Example 284, (3R,5S)-1-(4-(4-(4-(2,6-difluorobenzyl)-5-oxo-4,5-dihydro-1H-1,2,4-triazol-1-yl)-2-fluorophenoxy)-5-fluoropyridin-2-yl)-5-methylpyrrolidine-3-carbonitrile] the IC50 was < 100 nM.
With `O=c1n(Cc2c(F)cccc2F)cnn1-c1ccc(Oc2cncc(N3CC4(CCOCC4)C3)c2)cc1` [Example 285, 2-(4-((5-(7-oxa-2-azaspiro[3.5]nonan-2-yl)pyridin-3-yl)oxy)phenyl)-4-(2,6-difluorobenzyl)-2,4-dihydro-3H-1,2,4-triazol-3-one] the IC50 was < 100 nM.
`CC1(C#N)CN(c2cccnc2OCc2ccc(-n3ncn(Cc4c(F)cccc4F)c3=O)cc2)C1` [Example 286, 1-(2-((4-(4-(2,6-difluorobenzyl)-5-oxo-4,5-dihydro-1H-1,2,4-triazol-1-yl)benzyl)oxy)pyridin-3-yl)-3-methylazetidine-3-carbonitrile] gave an IC50 of 100 to 1000 nM.
`O=c1n(Cc2c(F)cccc2F)cnn1-c1ccc(Oc2ccnc(N3CC(OC(F)F)C3)c2)cc1` [Example 287, 4-(2,6-difluorobenzyl)-2-(4-((2-(3-(difluoromethoxy)azetidin-1-yl)pyridin-4-yl)oxy)phenyl)-2,4-dihydro-3H-1,2,4-triazol-3-one] was tested, and the IC50 was < 100 nM.
Compound `O=c1n(Cc2c(F)ccc(F)c2F)cnn1-c1ccc(Oc2ccnc(N3CC4(CCOCC4)C3)c2)cc1` [Example 288, 2-(4-((2-(7-oxa-2-azaspiro[3.5]nonan-2-yl)pyridin-4-yl)oxy)phenyl)-4-(2,3,6-trifluorobenzyl)-2,4-dihydro-3H-1,2,4-triazol-3-one] has an IC50 of 100 to 1000 nM.
With `C[C@H]1C[C@@H](O)CN1c1cc(Oc2ccc(-n3ncn(Cc4c(F)cccc4F)c3=O)cc2)ccn1` [Example 289, 4-(2,6-difluorobenzyl)-2-(4-((2-((2S,4R)-4-hydroxy-2-methylpyrrolidin-1-yl)pyridin-4-yl)oxy)phenyl)-2,4-dihydro-3H-1,2,4-triazol-3-one] the IC50 was < 100 nM.
`Cc1cnc(Cl)cc1Oc1ccc(-n2ncn(Cc3c(F)cccc3F)c2=O)cc1Cl` [Example 290, 2-(3-chloro-4-((2-chloro-5-methylpyridin-4-yl)oxy)phenyl)-4-(2,6-difluorobenzyl)-2,4-dihydro-3H-1,2,4-triazol-3-one] was tested, and the IC50 was < 100 nM.
In the case of `C[C@H]1[C@@H](NC(=O)OC(C)(C)C)CN1c1cc(Oc2ccc(-n3ncn(Cc4c(F)cccc4F)c3=O)cc2F)c(F)cn1` [Example 291, tert-butyl ((2S,3S)-1-(4-(4-(4-(2,6-difluorobenzyl)-5-oxo-4,5-dihydro-1H-1,2,4-triazol-1-yl)-2-fluorophenoxy)-5-fluoropyridin-2-yl)-2-methylazetidin-3-yl)carbamate], the IC50 is reported as < 100 nM.
With `CC1(C#N)CN(c2cc(Oc3ccc(-n4nc5n(c4=O)C(c4ccccc4)CC5)cc3F)c(F)cn2)C1` (centres unmarked) [Example 292, 1-(5-fluoro-4-(2-fluoro-4-(3-oxo-5-phenyl-6,7-dihydro-3H-pyrrolo[2,1-c][1,2,4]triazol-2(5H)-yl)phenoxy)pyridin-2-yl)-3-methylazetidine-3-carbonitrile] the IC50 was < 100 nM.
For `CC(C)(O)C1CCN1c1cc(Oc2ccc(-n3ncn(Cc4c(F)cccc4F)c3=O)cc2F)c(F)cn1` (centres unmarked) [Example 293, 4-(2,6-difluorobenzyl)-2-(3-fluoro-4-((5-fluoro-2-(2-(2-hydroxypropan-2-yl)azetidin-1-yl)pyridin-4-yl)oxy)phenyl)-2,4-dihydro-3H-1,2,4-triazol-3-one], the IC50 was < 100 nM.
In the case of `Cc1cnc(N2CC(C)(C#N)C2)cc1Oc1ccc(-n2ncn(Cc3c(F)cccc3F)c2=O)cc1F` [Example 294, 1-(4-(4-(4-(2,6-difluorobenzyl)-5-oxo-4,5-dihydro-1H-1,2,4-triazol-1-yl)-2-fluorophenoxy)-5-methylpyridin-2-yl)-3-methylazetidine-3-carbonitrile], the IC50 is reported as < 100 nM.
`Cc1nc(N2CCOCC2)sc1Oc1ccc(-n2ncn(Cc3c(F)cccc3F)c2=O)cc1F` [Example 295, 4-(2,6-difluorobenzyl)-2-(3-fluoro-4-((4-methyl-2-morpholinothiazol-5-yl)oxy)phenyl)-2,4-dihydro-3H-1,2,4-triazol-3-one] was tested, and the IC50 was < 100 nM.
For `Cc1nc(N2CCN(C)CC2)sc1Oc1ccc(-n2ncn(Cc3c(F)cccc3F)c2=O)cc1F` [Example 296, 4-(2,6-difluorobenzyl)-2-(3-fluoro-4-((4-methyl-2-(4-methylpiperazin-1-yl)thiazol-5-yl)oxy)phenyl)-2,4-dihydro-3H-1,2,4-triazol-3-one], the IC50 was < 100 nM.
With `C[C@H]1CCCN1c1cc(Oc2ccc(-n3ncn(Cc4c(F)cccc4F)c3=O)cc2F)c(F)cn1` [Example 297, (S)-4-(2,6-difluorobenzyl)-2-(3-fluoro-4-((5-fluoro-2-(2-methylpyrrolidin-1-yl)pyridin-4-yl)oxy)phenyl)-2,4-dihydro-3H-1,2,4-triazol-3-one] the IC50 was < 100 nM.
In the case of `Cc1nc(NC2=NC(C)(C)CO2)sc1Oc1ccc(-n2ncn(Cc3c(F)cccc3F)c2=O)cc1Cl` [Example 298, 2-(3-chloro-4-((2-((4,4-dimethyl-4,5-dihydrooxazol-2-yl)amino)-4-methylthiazol-5-yl)oxy)phenyl)-4-(2,6-difluorobenzyl)-2,4-dihydro-3H-1,2,4-triazol-3-one], the IC50 is reported as < 100 nM.
With `Cc1nc(N2CC(C)(O)C2)sc1Oc1ccc(-n2ncn(Cc3c(F)cccc3F)c2=O)cc1F` [Example 299, 4-(2,6-difluorobenzyl)-2-(3-fluoro-4-((2-(3-hydroxy-3-methylazetidin-1-yl)-4-methylthiazol-5-yl)oxy)phenyl)-2,4-dihydro-3H-1,2,4-triazol-3-one] the IC50 was < 100 nM.
Compound `O=c1n(Cc2c(F)cccc2F)cnn1-c1ccc(Oc2ccnc(N3CC4(CCO4)C3)c2)cc1` [Example 300, 4-[(2,6-difluorophenyl)methyl]-2-[4-[[2-(1-oxa-6-azaspiro[3.3]heptan-6-yl)-4-pyridyl]oxy]phenyl]-1,2,4-triazol-3-one] has an IC50 of 100 to 1000 nM.
With `CCOC1CN(c2cc(Oc3ccc(-n4nc5n(c4=O)C(c4ccccc4)CC5)cc3)ccn2)C1` (centres unmarked) [Example 301, 2-[4-[[2-(3-ethoxyazetidin-1-yl)-4-pyridyl]oxy]phenyl]-5-phenyl-6,7-dihydro-5H-pyrrolo[2,1-c][1,2,4]triazol-3-one] the IC50 was < 100 nM.
In the case of `COC1(C#N)CN(c2cc(Oc3ccc(-n4ncn(Cc5c(F)cccc5F)c4=O)cc3)c(F)cn2)C1` [Example 302, 1-(4-(4-(4-(2,6-difluorobenzyl)-5-oxo-4,5-dihydro-1H-1,2,4-triazol-1-yl)phenoxy)-5-fluoropyridin-2-yl)-3-methoxyazetidine-3-carbonitrile], the IC50 is reported as < 100 nM.
